# Measurements from patent US11512083B2, “Compounds and methods for the enhanced degradation of targeted proteins” (Arvinas Operations, Inc., priority 2015, dated 2022).
# Columns and labels:
# VHL = VHL (Homo sapiens (Human), UniProt P40337); assay: VHL fluorescence polarization (FP) competition assay; format: binding
# BRD4 = BRD4 (Homo sapiens (Human), UniProt O60885); assay: BRD4 c-myc ELISA assay in 22RV-1 cells; format: cell-based; details: 18 hrs, 300 nM-0.3 nM
# Description: 22RV-1 cells were seeded at 30,000 cells/well at a volume of 75 μL/well in RPMI+10% FBS media in 96-well plates and grown overnight at 37 C. Cells were dosed with compounds at 4× concentration diluted in 0.4% DMSO; compounds were serially diluted 1:3 for 8-point dose curve. 25 ul of compound was added to cells for a final concentration starting at 300 nM-0.3 nM in 0.1% DMSO and incubated for 18 hrs. Media was aspirated, cells washed 1× with PBS and aspirated. Cells were lysed in 50 ul RIPA buffer (50 mM Tris pH8, 150 mM NaCl, 1% Tx-100, 0.1% SDS, 0.5% sodium deoxycholate) supplemented with protease and phosphatase inhibitors. Plates were incubated on ice for 15 minutes then centrifuged at 4° C. for 10 min at 4000 rpm. Added 50 ul of cleared lysate from 96-well assay plate into 96-well c-myc ELISA plate (Novex, Life Technologies Catalog #KH02041). […] The rest of the assay was performed following the protocol from the c-myc ELISA kit. Data was analyzed and plotted using GraphPad Prism software.
# Androgen Receptor = assay: Androgen receptor ELISA assay (AR degradation) in LNCaP and/or VCaP cells; format: cell-based; details: AR PROTACs; 24 h incubation
# Description: Compounds have been evaluated in this assay in LNCaP and/or VCaP cells utilizing similar protocols. The protocols used with VCaP cells are described below. The androgen receptor ELISA assay was performed using PathScan AR ELISA (Cell Signaling Catalog #128501 according to the following assay steps:
# VCaP cells are seeded at 30,000 cells/well at a volume of 200 μL/well in VCaP assay medium [Phenol red free RPMI (Gibco Cat #11835-030); 5% Charcoal Stripped (Dextran treated) FBS (Omega Scientific, Cat #FB-04); Pen/Strep Life Technologies (Gibco Cat #: 10378-016); 0. 1 nM R1881 (Sigma, Cat #R0908) is added upon the start of the assay, not during initial plating of the cells) in Corning 3904 plates. The cells are grown for a minimum of 3 days.
# (2)(i) Make 10× stock plate in media; (ii) transfer 2.5 μL of the 1000× stock to a new 10× stock plate (use 12 channel pipet, start at A (DMSO control) work thru H. When 247.5 μL of media is added to this plate, it will serve as a 10× stock; (iii) make media+1 nM R1881 for making 10× stock plate; (iv) add 247.5 μL of media with 1 nM R1881 to each well of the 10× stock plate, mix.
# Then 22 μL of 10× stock is added to cells and incubated for 24 h. 1× Cell Signaling Cell lysis buffer is made (Catalogue #9803; comes with the kit)—prepare for 50 μL/well. Keep on ice. Media is aspirated, and 50 μL 1× cell lysis buffer/well is added. The cells are placed on ice for 10 minutes. The solution is mixed and transferred to PCR plate, and centrifuged at 4 C for 10 minutes at 4000 rpm. […]
# Add 100 μL/well AR Elisa; cover and shake, 37 C for 2 hrs; dump, tap, wash 4× 200 μL ELISA wash buffer; add 100 μL/well mouse AR detection Ab; cover and shake, 37 C for 1 hr; dump, tap, wash 4× 200 μL ELISA wash buffer; add 100 μL/well anti-mouse—HRP conjugated Ab (comes with the kit); cover and shake, 37 C for 30 min; allow TMB reagent to come to RT; dump, tap, wash 4× 200 μL Elisa wash buffer; tap; add 100 μL TMB, shake 5 min—while watching color. […] Add 100 μL Stop solution; shake and read at 450 nm. […]
Structure (SMILES),IC50 (VHL; 1% in DMSO) [µM],cMyc Imax (BRD4),also measured
"CSC[C@H](NC(=O)CCC(C)C)C(=O)N1C[C@H](O)C[C@H]1C(=O)NCc1ccc(-c2scnc2C)cc1 [Example 22, (2S,4R)-4-hydroxy-1-((R)-2-(4-methylpentanamido)-3-(methylthio)propanoyl)-N-(4-(4-methylthiazol-5-yl)benzyl)pyrrolidine-2-carboxamide]",6.25,,IC50 (VHL; 10% in DMSO): 8.29 µM
Cc1ncsc1-c1ccc([C@H](C)NC(=O)[C@@H]2C[C@@H](O)CN2C(=O)[C@@H](n2cc(-c3ccnc(O[C@H]4C[C@@H](NC(=O)C[C@@H]5N=C(c6ccc(Cl)cc6)c6c(sc(C)c6C)-n6c(C)nnc65)C4)c3)cn2)C(C)(C)C)cc1,,++++ (71%≤Imax),
Cc1ncsc1-c1ccc([C@H](C)NC(=O)[C@@H]2C[C@@H](O)CN2C(=O)[C@H](C(C)C)n2cc(-c3ccnc(N4CC[C@@H](Nc5ccc(C(=O)N[C@H]6C(C)(C)[C@H](Oc7ccc(C#N)c(Cl)c7)C6(C)C)cc5)C4)c3)cn2)cc1,,,Dmax (highest percentage of Androgen Receptor degradation observed) (Androgen Receptor): ++ (26%≤Dmax≤50%)
Cc1ncsc1-c1ccc([C@H](C)NC(=O)[C@@H]2C[C@@H](O)CN2C(=O)[C@H](C(C)C)n2cc(-c3ccnc(O[C@H]4C[C@H](NC(=O)C[C@@H]5N=C(c6ccc(Cl)cc6)c6c(sc(C)c6C)-n6c(C)nnc65)C4)c3)cn2)cc1,,++++ (71%≤Imax),
"Cc1ncsc1-c1ccc(CNC(=O)[C@@H]2C[C@@H](O)CN2C(=O)[C@@H](NC(=O)C2CCN(C)CC2)C(C)(C)C)cc1 [Example 75, N—((S)-1-((2S,4R)-4-hydroxy-2-(4-(4-methylthiazol-5-yl)benzylcarbamoyl)pyrrolidin-1-yl)-3,3-dimethyl-1-oxobutan-2-yl)-1-methylpiperidine-4-carboxamide]",13.7,,IC50 (VHL; 10% in DMSO): 9.29 µM
Cc1ncsc1-c1ccc([C@H](C)NC(=O)[C@@H]2C[C@@H](O)CN2C(=O)[C@H](C(C)C)n2cc(-c3ccnc(N4CC[C@H](NC(=O)C[C@@H]5N=C(c6ccc(Cl)cc6)c6c(sc(C)c6C)-n6c(C)nnc65)C4)c3)cn2)cc1,,++++ (71%≤Imax),
"Cc1ncsc1-c1ccc(CNC(=O)C2(C)C[C@@H](O)CN2C(=O)[C@H](C(C)C)N2Cc3ccccc3C2=O)cc1 (single isomer, unassigned) [Example 129]",19.3,,
Cc1ncsc1-c1ccc(CNC(=O)[C@@H]2C[C@@H](O)CN2C(=O)C(C(C)C)n2cc(OC3CCN(c4ccc(-c5ccc(N6C(=S)N(c7ccc(C#N)c(C(F)(F)F)c7)C(=O)C6(C)C)cc5)cn4)CC3)cn2)cc1 (stereo partly shown),,,Dmax (highest percentage of Androgen Receptor degradation observed) (Androgen Receptor): ++ (26%≤Dmax≤50%)
"Cc1ncsc1-c1ccc(CNC(=O)[C@@H]2C[C@@H](O)CN2C(=O)[C@@H](NC(=O)c2ccccc2C#N)C(C)(C)C)cc1 [Example 70, (2S,4R)-1-((S)-2-(2-cyanobenzamido)-3,3-dimethylbutanoyl)-4-hydroxy-N-(4-(4-methylthiazol-5-yl)benzyl)pyrrolidine-2-carboxamide]",2.02,,IC50 (VHL; 10% in DMSO): 1.2 µM
"Cc1ncsc1-c1ccc(CNC(=O)C2(C)C[C@@H](O)CN2C(=O)[C@H](C(C)C)N2Cc3ccccc3C2=O)cc1 (single isomer, unassigned) [Example 128]",> 100,,
Cc1ncsc1-c1ccc(CNC(=O)[C@@H]2C[C@@H](O)CN2C(=O)[C@H](C(C)C)n2cc(-c3cccc(O[C@H](C)CNC(=O)C[C@@H]4N=C(c5ccc(Cl)cc5)c5c(sc(C)c5C)-n5c(C)nnc54)c3)cn2)cc1,,++++ (71%≤Imax),
Cc1ncsc1-c1ccc([C@H](C)NC(=O)[C@@H]2C[C@@H](O)CN2C(=O)[C@H](C(C)C)n2cc(OCCCOCCC(O)CCOc3ccc(N4C(=S)N(c5ccc(C#N)c(C(F)(F)F)c5)C(=O)C4(C)C)cc3)cn2)cc1 (stereo partly shown),,,Dmax (highest percentage of Androgen Receptor degradation observed) (Androgen Receptor): +++ (51%≤Dmax≤70%)
"Cc1ncsc1-c1ccc(CNC(=S)[C@@H]2C[C@@H](O)CN2C(=O)[C@H](C(C)C)N2Cc3ccccc3C2=O)cc1 [Example 110, (2S,4R)-4-hydroxy-1-((S)-3-methyl-2-(1-oxoisoindolin-2-yl)butanoyl)-N-(4-(4-methylthiazol-5-yl)benzyl)pyrrolidine-2-carbothioamide]",21.6,,
